In patent US8163870B2, “Channel forming peptides” (Kansas State University Research Foundation, priority 2000, dated 2012):

How the values were obtained:
MDCK monolayers = assay: FITC-dextran permeability assay; format: cell-based, canine; details: SEQ ID NO. 27 100 μM; EDTA 3 mM in hypotonic Ringer
Experimental: Confluent MDCK cell monolayers were washed once with Ringer solution and placed in one of three treatments containing FITC-conjugated dextran (Sigma Chemical Co.) in the apical compartment; 1, Ringer solution in the apical and basolateral compartments; 2, Ringer solution apical and basolateral with SEQ ID No. 27 (also referred to herein as NC-1059) (100 μM) in the apical solution; 3, EDTA (3 mM) in Ringer solution that had been diluted 1:1 with distilled water in both the apical and basolateral compartments. Monolayers are incubated at 37° C. for 60 minutes and the solution in the basolateral well sampled to quantify fluorescently labeled dextran. Monolayers are then washed with Ringer solution to remove peptide, EDTA, and dextran, placed in tissue culture medium and returned to the incubator for two days before the assay was conducted again.
FITC-dextran permeability assay. Epithelial permeability to uncharged solutes of various sizes was assessed with monolayers grown on Snapwell tissue culture inserts as described above. […] Monolayers were incubated at 37° C. for 60 minutes and the solution in the basolateral well was sampled to quantify fluorescently labeled dextran. […]

[1] = tested on: tight junction-associated proteins (actin, ZO-1, occludin) in MDCK monolayers; assay: Confocal microscopy, immunolocalization of tight-junction associated proteins; format: cell-based, canine; details: peptides 100 μM; EDTA 6 mM and hypotonic Ringer
Experimental: Confocal microscopy. Immunoreactivity to antibodies raised against tight-junction associated proteins was assessed by confocal microscopy (Zeiss, Thornwood, N.Y.). Samples for visualization were prepared from monolayers used in electrophysiological studies. After removal from Ussing chambers, monolayers were washed in Ringer solution and fixed overnight in 10% neutral buffered formalin. Monolayers were washed 3 times in PBS, permeabilized with 0.1% Triton X-100 in PBS, blocked with goat serum, and then exposed to primary antibody in a 1:500 dilution (rat anti-ZO-1, cat# MAB120, Chemicon, Temecula, Calif. or rabbit anti-occludin, cat.# 71-1500; Zymed, San Francisco, Calif.) for 1 hour at room temperature. After being washed 3 times in PBS, FITC-conjugated goat anti-rat (cat #AP136F, Chemicon) or goat anti-rabbit (cat #FI-1000; Vector Laboratories, Burlingame, Calif.) secondary antibodies were employed (1:1000 dilution) with exposure occurring for 1 hour at room temperature. TRITC-labeled phalloidin (0.1 mg/ml in methanol; Sigma Chemical Co.) was used for F-actin localization was applied concurrently with the secondary antibody. A KrAr laser was used to excite the fluorophores. Filter sets used for fluorescein were BP485/20 nm for excitation and BP515-540 nm for emission and for rhodamine BP530-585 nm for excitation and LP590 nm for emission.

MDCK cells = format: cell-based, canine; details: peptide at 500 μM
Description: Cell culture: MDCK cells were a generous gift of Dr. Lawrence Sullivan (Kansas University Medical Center, Kansas City, Kans.). T84 cells were obtained from Dr. Daniel Devor (University of Pittsburgh, Pittsburgh, Pa.). MDCK and T84 cells were maintained with similar culture procedures. The culture medium was a 1:1 mixture of DMEM and Ham's F-12 (Gibco BRL, Grand Island, N.Y.) supplemented with 5% heat inactivated fetal bovine serum (BioWhittaker, Walkersville, Md.), and 1% penicillin and streptomycin (Gibco BRL). Cells were grown in plastic culture flasks in a humidified environment with 5% CO2 at 37° C. and passaged every 5-7 days. For Ussing chamber experiments, cells were plated on 1.13 cm^2 permeable supports (Snapwell™, Costar®, Cambridge, Mass.) at a density of approximately 1×10^6 cells/well and incubated in DMEM/F-12 supplemented with FBS and antibiotics (changed every other day) for 2-3 weeks prior to being mounted in modified Ussing flux chambers.
To form monolayers, the cells were plated onto the upper surface of a permeable membrane that forms the bottom of a plastic well. Two types were used. One was the Transwell™ insert (Costar®, Cambridge, Mass.) supported in a six-well tissue culture plate and the other type was the Snapwell™ (Costar®, Cambridge, Mass.). During incubation, the medium was replaced at 48-72 hour intervals. Confluent monolayers formed within 72 hours. Experiments were performed on the monolayers 6-9 days after the initial plating. Net fluid secretion responses were optimal after six days.
Solutions: Ringer solution was made fresh daily. The final concentration (in mM) was 120 NaCl, 25 NaHCO3 3.3 KH2HPO4, 0.8 K2HPO4, 1.2 MgCl2, 1.2 CaCl2, (290±2 mOsmol). All components of the Ringer solution were from Sigma (St. Louis, Mo.).
(§1) Epithelial electrical measurements: Transepithelial ion transport was evaluated in a modified Ussing chamber (Model DCV9, Navicyte, San Diego, Calif.). The Ussing chamber's fluid resistance compensation was completed in Ringer solution (see below). For electrical measurements cell monolayers were bathed in Ringer solution maintained at 37° C. and continuously bubbled with 5% CO2:95% O2. The transepithelial membrane potential (Vte) was clamped to zero and the transepithelial short circuit current (Isc), an indicator of net ion transport, was measured continuously with a voltage clamp apparatus (Model 558C, University of Iowa, Department of Bioengineering, Iowa City, Iowa). Data were digitally acquired at 1 Hz with a Macintosh computer (Apple Computer, Cuppertino, Calif.) using Aqknowledge software (ver. 3.2.6, BIOPAC Systems, Santa Barbara, Calif.) with an MP100A-CE interface.
as §1, with “Transepithelial” for “Epithelial electrical measurements: Transepithelial”, “(composition (in mM) was 120 NaCl, 25 NaHCO3 3.3 KH2HPO4, 0.8 K2HPO4, 1.2 MgCl2, 1.2 CaCl2).” for “(see below).”
MDCK cell monolayers (in the presence of 1-EBIO to maximize basolateral membrane K^+ conductance) were exposed on the apical aspect to escelating peptide concentrations. Maximal change in Isc (relative to the Isc prior to peptide exposure) was recorded following each increment in apical peptide concentration. […]

[2] = Chemical cross-linking (BS3) and SDS-PAGE, oligomeric state of peptide in solution; format: physicochemical; details: SDS-PAGE
Experimental: Chemical cross-linking: In order to visualize the oligomeric state of the peptide in solution a chemical cross-linking protocol was developed. Calculated amounts of each peptide were weighted out and dissolved in 1 mL of distilled water to make 1 mM stock solutions. A 100 mM stock solution of the chemical crosslinking reagent Bis[Sulfosuccinimidyl]suberate, BS^3, (Pierce Chemical Co., Rockford, Ill.) was prepared in dimethyl sulfoxide (DMSO). […] Sample were allowed to sit at room temperature for 15 minutes. 1-6 μL of 100 mM BS^3 was then added to the previously prepared peptide such that the crosslinking reagent was present in 20-fold excess. The final volume for each reaction was 100 μL. […] Each sample was then vacuum dried. Later dry samples were re-dissolved in 60 μL of distilled water along with 60 μL of a 2×-tricine SDS sample buffer (Novex, San Diego). All samples were then boiled at 100° C. for 5 minutes. 5 μL aliquots of each SDS boiled sample was then loaded into separate lanes of pre-cast, 1.0 mm, 10 well, 10-20% tricine gels (Novex, San Diego). Pre-made Novex tricine-SDS buffer was used in the electrophoresis. The reference well contained 1 μL of MultiMark® multi-colored molecular weight standard (Novex, San Diego). The electrophoresis was carried out at a constant 110 Volts for 90 minutes. […]

cultured CF monolayers = assay: Glutathione transport in cultured CF monolayers; format: cell-based

| Molecule | permeation of 20 kDa FITC-dextran conjugate (MDCK monolayers) | distribution of actin, occludin and ZO-1 immunoreactivity [1] | Activity profile in MDCK cells (MDCK cells) [at 500 μM μA/cm2] | aggregation state in solution [2] | glutathione transport (cultured CF monolayers) |
| --- | --- | --- | --- | --- | --- |
| O=C(O)CN(CCN(CC(=O)O)CC(=O)O)CC(=O)O [EDTA] | highest level of permeation | profound changes in localization of the peri-junctional actin ring, as well as the distribution of ZO-1 |  |  |  |
| PARVGLGITTVLTMTTQSSGSRAKKKK (PARVGLGITTVLTMTTQSSGSRAKKKK; Modified Homo sapiens) [SEQ ID No. 2, reference compound] |  |  | 12.5 | only trace amounts of aggregates higher than trimer | active but to a much lesser extent |
